Results on 4 molecules are retold here after patent US10723726B2, “Solid forms of (Z)-4-(5-((3-benzyl-4-oxo-2-thioxothiazolidin-5-ylidene)methyl)furan-2-yl)benzoic acid” (GB006, INC., priority 2015, dated 2020).

Entries after “also recorded” stand apart in the source; their conditions may differ. Where two headings read alike, the source gives them in different places.

Data set [1] can be described thus: in vivo. The following applies: male, dog; for AUC0-t: AUC0-12 h. The protocol:
The PO (2 mg/kg) dose solution of micronized LA1 was prepared in 0.1% Tween-80 0.5% (w/v) and methyl cellulose in water.
The objective of the study was to investigate the preclinical pharmacokinetic profile of LA1 (micronized powder) in Beagle dog. To delineate the plasma concentration vs. time curve and characterize the relevant pharmacokinetic parameters to generate data on the PK properties viz., bioavailability, half-life (b1/2), volume of distribution, Cmax, Tmax, AUC and elimination rate constant of LA1 in Beagle dog.
LA1 was a coarse material which was micronized using laboratory scale ball mill. […] The micronized LA1 was recovered, weighed and stored in glass container at room temperature. For intravenous drug administration, LA1 excipient compatibility assay for dosing in dogs were carried out.
In brief, a known amount of LA1 was loaded to a cylindrical capped container made of stainless steel followed by addition of stainless steel balls. The ball mills were rotated on their axis for total of 60 minutes (6 cycles X 10 minutes). The micronized LA1 was recovered, weighed and stored in glass bottle at room temperature.
Test system: Healthy Beagle dog weighing 10-12 kg (age 10 months), males were used for the study. Crossover design was adopted for the experiments wherein 02 dogs were used in the study for oral and intravenous administration. Both the animals were housed stainless steel cage provided with a hopper to hold pellet feed and a separate water hopper. Temperature and humidity was maintained at 22±3° C. and 40-70%, respectively. The illumination was controlled to give a sequence of 12 h light and 12 h dark cycle. All the animals were adapted to the experimental conditions for at least 5 days prior to dosing. All animals were provided with Pedigree™ standard pellet feed, except for 10 to 12 h before treatment and 4 h after the drug administration. Water was provided ad libidum.
Formulation and drug administration: Exactly 90 mg of the test item LA1 (micronized powder) was weighed and transferred to a mortar and briefly triturated with pestle. Small volume of vehicle [0.5% (w/v) Carboxy methyl cellulose with 0.1% Tween-80] in water was then added slowly with continuous trituration until a uniform suspension was obtained. The content was then transferred into the measuring cylinder. The mortar was rinsed till the complete transfer of test item into the measuring cylinder was ensured. The final volume was then made up to 225 mL with vehicle to get a uniform suspension with desired concentration of 0.4 mg/mL. Dosing formulations were given by oral gavage at a dose volume not exceeding 5 mL/kg.
Intravenous drug formulation: Hemolysis assay using dog whole blood was employed to assess the damage of red blood cells for selection of excipient for intravenous dosing. […] Exactly 22.5 mg of the test item (micronized powder) was weighed into a graduated tube. 2.25 mL of DMSO was added drop wise and mixed by vortex. Then, 40.50 mL of Polyethylene glycol 400 (PEG-400) was added in two to three fragments and vortex intermittently. Then 2.25 mL Ethanol was added drop wise and vortex to get clear solution. The formulation was subjected to ultra-sonication for 5 minutes.
Sample collection: Serial method was used for blood sampling. Blood samples were collected as mentioned in the study design section (7). The blood sample (−1.5 mL) was collected from saphenous vein into labeled tubes, containing 2% w/v K2EDTA solution, as an anticoagulant.

For data set [2] the following is noted: male, Sprague-Dawley, in vivo.
Protocol: (§1) In a second experiment, the dose solution was prepared in Tween-80 (0.02%) and 0.5% methyl cellulose in Milli-Q water. IP (2 mg/kg) and IV (1 mg/kg) dose solutions were prepared in a 5% DMSO and 95% PEG-200.
(§2) The PO (2 mg/kg) dose solution was prepared in Tween-80 (0.02%) and 0.5% methyl cellulose in Milli-Q water. The IV (1 mg/kg) dose solution was prepared in a solution of 5% DMSO and 95% PEG-200.
(§3) The routes of administration were namely PO (gavage), IP (bolus) and IV (bolus through tail vein). A total of four SD male rats were used aged between 5-6 weeks. The feeding regimen included 12 h fasting and the feed was provided 2 hrs after the dosage inoculation and water was provided ad libidum. The blood collection schedule for PO/IP was at 0.25, 0.5, 1, 2, 4, 8, 10 and 24 h, and for IV it was at 0.12, 0.25, 0.5, 1, 2, 4, 8 and 24 h. For PO dosage, tween-80 (0.02%) and 0.5% methyl cellulose prepared in milli-Q water were used as vehicles; for IP and IV dosage 5% DMSO and 95% PEG-200 were used as vehicles.
(§4) Stock solution (178 μg/mL) in methanol was further diluted using methanol: water (80:20, v/v) to obtain working solutions in the range of 10.4 to 20745 ng/mL.
(§5) 50 μL of sample was aliquoted in to pre-labeled vials. To it was added 200 μL of 10% tetrahydrofuran containing IS (100 ng/mL; tolbutamide) and mixed well, vortexed for 5 min followed by centrifugation for 5 min at 14000 rpm for at 4° C. Supernatant was separated and 5 μL of same was injected on LC-MS/MS.
(§6) Data Analysis: Individual concentration-time data were analyzed using WinNonlin (Version 5.3) by non-compartmental analysis (NCA) method.
(§7) The routes of administration were namely PO (gavage) and IV (bolus through tail vein). A total of four SD male rats were used aged between 5-6 weeks. The feeding regimen included 12 h fasting and the feed was provided 2 hrs after the dosage inoculation and water was provided ad libitum. The blood collection schedule for PO was at 0.25, 0.5, 1, 2, 4, 8, 10 and 24 h, and for IV it was at 0.12, 0.25, 0.5, 1, 2, 4, 8 and 24 h. For PO dosage, tween-80 (0.02%) and 0.5% methyl cellulose prepared in milli-Q water were used as vehicles; for IV dosage 10% DMSO and 90% PEG-200 were used as vehicles.
Data set [3] in a line: in vivo. The settings on record: male, Sprague-Dawley, rat, po, 2 mg/kg.
Protocol: as §1, §2, §3, §4, §5, §6, §7
A short description of data set [4]: Humidity stress at 40° C./75% RH. Type of data set: physicochemical. The following applies: 5-6 days. On the procedure: The larger vials were capped, sealed with Parafilm and placed inside an oven at 40° C. for up to 6 days. Salts were then removed from these conditions and changes observed (e.g. color, deliquescence etc.) before being analyzed for weight change and by XRPD. Samples were examined visually after stressing, form composition confirmed by XRPD analysis and weight change recorded (Table 7).

Data set [5] is described as follows: Aqueous solubility by equilibration, HPLC analysis. Type of data set: physicochemical. The following applies: for Appearance / Soln pH: after slurrying in water 4-5 days; for HPLC purity (%): after slurrying in water 4-5 days (chemical stability). On the procedure:
An aliquot of the UHQ water test solvent (1 mL) was added to an accurately weighed sample of the LA1 salts and agitated at ambient temperature for a period of 4 days. A sample was withdrawn, filtered through a […], and analyzed by HPLC. HPLC was used to determine aqueous equilibrium solubility at ambient temperature. […] Samples were slurried in water for 4-5 days before analysis.

Where [6] appears, read: beagle, iv, 0.5 mg/kg, Plasma concentration.
The mark [7] stands for this setting: beagle, po, 0.5 mg/kg, Plasma concentration.

The term bioavailability denotes the share of a dose that reaches the circulation, judged against a reference dose that is usually intravenous. Usually clearance stands for the volume of plasma or blood freed of the substance per unit of time. A higher clearance goes with a high capacity for elimination. The term AUC(0-inf) denotes total exposure, with the tail of the curve extrapolated. A higher AUC(0-inf) goes with high exposure. What is called Cmax is the peak of the concentration-time curve. Broadly, the half-life is the time needed for the level to fall by half in the phase considered. A high value points to slow loss. A word on the Tmax: it is the time at which the peak concentration occurs. A word on the Vss: it is the apparent volume that relates the amount in the body to the concentration in plasma or blood. Low readings indicate little distribution into tissue, high ones wide distribution into tissue. As usually defined, the MRT is a mean duration of stay, worked out from the concentration-time curve. A word on the Vd: it is a proportionality between amount in the body and measured concentration, not a real space. In general, AUC refers to the area under the concentration-time curve, a measure of exposure. As to `O=C(O)c1ccc(-c2ccc(/C=C3\SC(=S)N(Cc4ccccc4)C3=O)o2)cc1` [LA1 (micronized)], the concentration at 12 h in “in vivo [1]” (Beagle, iv, 0.5 mg/kg, Plasma concentration) was 7.93 ng/mL; in “in vivo [1]” (setting [7]), 37.5 ng/mL. Besides, the bioavailability in “in vivo [1]” (beagle, Absolute oral bioavailability) worked out at 50.6%; in the data set “in vivo [1]” (beagle, Dog F % (absolute oral bioavailability)), 50%; in “in vivo [1]” (beagle, po, 0.5 mg/kg, Absolute Bioavailability F %), 50.6%; in “in vivo [3]” (Rat F %), 23%. The molecule also yielded a clearance in the data set “in vivo [1]” (beagle, Dog Cl (ml/min/kg)) of 2.1 mL/min/kg. Also, the AUC0-t in the data set “in vivo [1]” (beagle, iv, 0.5 mg/kg) was 1330 ng·h/mL; in “in vivo [1]” (beagle, po, 3 mg/kg), 2570 ng·h/mL; in data set [2] (rat, iv, 1 mg/kg) it was 715 ng·h/mL; in data set [2] (rat, po, 2 mg/kg), 319 ng·h/mL. Further, the AUC(0-inf) was found to be 1350 ng·h/mL in the data set “in vivo [1]” (beagle, iv, 0.5 mg/kg, AUC0-inf); 1350 ng·h/mL in the data set “in vivo [1]” (beagle, iv, 0.5 mg/kg, AUCinf); 2690 ng·h/mL in the data set “in vivo [1]” (beagle, po, 2 mg/kg, AUCinf); 2690 ng·h/mL in the data set “in vivo [1]” (beagle, po, 3 mg/kg, AUC0-inf). Also, the C0 in “in vivo [1]” (beagle, iv, 0.5 mg/kg, C0) came out at 1330 ng/mL; in data set [2] (rat, iv, 1 mg/kg) it was 1025 ng/mL. The Cmax in “in vivo [1]” (beagle, iv, 0.5 mg/kg, Co/Cmax) was determined as 2040 ng/mL; in “in vivo [1]” (beagle, po, 2 mg/kg, Cmax), 685 ng/mL; in “in vivo [1]” (beagle, po, 3 mg/kg, Co/Cmax), 685 ng/mL. In the data set “in vivo [1]” (setting [6]), this molecule displayed a concentration at 0.05 h of 1570 ng/mL. For the same molecule, in “in vivo [1]” (setting [6]), the concentration at 0.1 h stood at 897 ng/mL. In the data set “in vivo [1]” (setting [6]), this molecule registered a concentration at 0.25 h of 717 ng/mL. This molecule showed a concentration at 0.5 h in the data set “in vivo [1]” (setting [6]) of 505 ng/mL. The same molecule came in with a concentration at 1 h in the data set “in vivo [1]” (setting [6]) of 405 ng/mL. In addition, in the data set “in vivo [1]” (setting [7]), the concentration at 4 h worked out at 660 ng/mL. The concentration at 6 h in the data set “in vivo [1]” (setting [7]) was determined as 211 ng/mL. This molecule also registered a concentration at 8 h in “in vivo [1]” (setting [7]) of 118 ng/mL. For the same molecule, the half-life was 2.11 h in the data set “in vivo [1]” (beagle, po, 2 mg/kg); 2.11 h in the data set “in vivo [1]” (beagle, po, 3 mg/kg); 1.1 h in “in vivo [3]” (t1/2 (hr)). The Tmax in “in vivo [1]” (beagle, po, 3 mg/kg) amounted to 4 h; in data set [2] (rat, po, 2 mg/kg), 0.88 h. Besides, in data set [2], the “Rat Cl” value is 23.4 mL/min/kg. For the same molecule, the “Vss” value in data set [2] (rat) came out at 2.14 L/kg. In addition, the “AUC0-∞” value in data set [2] (rat, iv, 1 mg/kg) is 729 ng·h/mL; in data set [2] (rat, po, 2 mg/kg), 336 ng·h/mL. The MRT is 1.47 h in data set [2] (rat, iv, 1 mg/kg) and 2.04 h in “in vivo [3]” (MRT (hr)). For the same molecule, the Tlast in data set [2] (rat, iv, 1 mg/kg) worked out at 12.0 h; in data set [2] (rat, po, 2 mg/kg), 6.50 h. The molecule also registered a Vd in data set [2] (rat, iv, 1 mg/kg) of 2.63 L/kg. Also, the AUC in the data set “in vivo [3]” (AUC (with PO bioavailability)) and in the data set “in vivo [3]” (AUC in mM*hr) was 0.76 µM·h throughout.
On to `[Ca]` [calcium], for which, in data set [4], the “Weight gain (%)” value stood at 1.7% and the XRPD after stressing entry is “More disordered”. Further, in data set [5], the Appearance result was “No change”, the “Soln pH” value came out at 7 and the “HPLC purity (%)” value came to 5.58%.
The matching figures for `C1CNCCN1` [piperazine]: −5.5%, “phase change; also recorded: New pattern (R)”, “No change”, 8 and 5.31%.
As to `NC(CO)(CO)CO` [tromethamine], the XRPD after stressing result in data set [4] was “phase change; also recorded: New pattern (S)”. For the same molecule, in data set [5], the Appearance result is reported as “Yellow ppt seen”, the “Soln pH” value is given as 8 and the “HPLC purity (%)” value came out at 89.7%. In addition, the “physical stability in water” value in data set [5] (slurrying 4-5 days, XRPD) is recorded as “not physically stable in water”.
